Data published in US12239646B2, “Cancer diagnostic and treatment” (DANA-FARBER CANCER INSTITUTE, INC., priority 2017, dated 2025).
Entries after “also recorded” stand apart in the source; their conditions may differ. Read-outs that look alike come from different tables or passages of the source.

Key:
[1] = system: Fusobacterium species; conditions: cited from earlier work; for general susceptibility of the species: background statement on Fusobacterium
[2] = system: COCA36F3 F. nucleatum (colorectal cancer isolate); assay: Validation of inhibitor hits, dose response curves; type: cell-based, Fusobacterium nucleatum; conditions: 8-point, 2-fold dilutions, range 30-0.23 μM
Procedure: FIG. 18 depicts validation of inhibitor hits (and related compounds). […] Validation/dose plates: 8-point, 2-fold dilutions, range 30-0.23 μM. Dose Response Curves [0.32-30 μM]: COCA36F3 F. nucleatum (colorectal cancer isolate).
(§1) A method for determining the threshold to identify inhibitor hits was established and carried out (FIG. 16). […] Validation of inhibitor hits and related compounds was carried out and dose response was determined for 5-FU, carmofur, and tegafur (FIG. 18). Validation of inhibitor hits was also carried out with additional patient CRC isolates of Fusobacterium (FIG. 19). […] Applicants also investigated whether the presence of Fusobacterium in colorectal tumors can explain patient response to 5-FU-based therapies. Data of 91 patient colorectal adenocarcinoma tumors with recurrence were obtained by Fusobacterium culture and bacterial 16s rRNA sequencing analysis.

[3] = system: patient colorectal cancer isolates of Fusobacterium nucleatum and Fusobacterium necrophorum; assay: Validation with additional patient CRC isolates of Fusobacterium; type: cell-based; conditions: compared with plasma levels of treated patients (Takimoto et al. 1999)
Procedure: FIG. 19 depicts validation of with additional patient CRC isolates of Fusobacterium. […] (Takimoto et al., Clinical cancer research: an official journal of the American Association for Cancer Research 5, 1347-1352 (1999)).
as §1

[4] = during chemotherapy for adenocarcinoma of the small bowel; cited from earlier work
[5] = system: Fusobacterium nucleatum; assay: Pilot compound screen for inhibition of Fusobacterium growth (BacTiter Glow luminescence); type: cell-based; conditions: 32 μM, in duplicate, 48 hours anaerobic; hit cut-off 3 SD from mean of neutral controls
Procedure: FIG. 16 depicts determining threshold to identify inhibitor hits. Neutral Control=untreated F. nucleatum. Inhibitor Control=F. nucleatum treated with metronidazole. 3 SD from mean of neutral controls=−86% inhibition hit cut-off.
FIG. 17 depicts identifying compounds that inhibit Fusobacterium growth. […] 3 SD from mean of neutral controls=−86% inhibition hit cut-off. 34 inhibitory compounds identified.
A pilot screen containing 1,846 compounds (in duplicate), at [32 μM] was carried out. Approximately 1-2×10^6 Fusobacterium nucleatum cells/ml was seeded and incubated anaerobically for 48 hours. The read out was by the addition of BacTiter Glow and luminescence read out.
as §1

[6] = system: Fusobacterium-positive colorectal tumors; assay: Recurrence/metastasis of patient colorectal adenocarcinoma tumors by Fusobacterium status and 5-FU treatment; conditions: 91 patient tumors with recurrence data; 43 patients treated with 5-FU or a 5-FU prodrug; p<0.05
Procedure: FIG. 20 illustrates a comparison between tumors treated with 5-FU or a 5-FU prodrug (right panel) and tumors with no treatment (left panel). A total of 91 patient colorectal adenocarcinoma tumors with recurrence data were analyzed by Fusobacterium culture and bacterial 16s rRNA sequencing.
as §1

[7] = system: Fusobacterium; assay: Fusobacterium-targeted qPCR on PDX tissue after treatment; type: in vivo, Fusobacterium species in PDX (COCA36) in Nu/Nu mice; conditions: PDX COCA36, metronidazole vs vehicle; p=0.002
Procedure: A custom TaqMan primer/probe set was used to amplify Fusobacterium species DNA (Integrated DNA technologies, CA) as previously described (28). The cycle threshold (Ct) values for Fusobacterium species were normalized to the amounts of human genomic DNA in each reaction by using a primer and probe set for the prostaglandin transporter (PGT) reference gene, and the fold difference (2^−ΔCt) in Fusobacterium load in tumor tissue was calculated as described before (8). Each reaction contained 100 ng of genomic DNA and was assayed in triplicate in 20 μL reactions containing 1× final concentration TaqMan Universal Master Mix (Applied Biosystems) and each TaqMan Gene Expression Assay (Applied Biosystems), in a 96-well optical PCR plate. Amplification and detection of DNA was performed with the ABI 7300 Real-Time PCR System (Applied Biosystems) using the following reaction conditions: 10 min at 95° C. and 42 cycles of 15 s at 95° C. and 1 min at 60° C. Cycle thresholding (Ct) was calculated using the automated settings (Applied Biosystems). The primer and probe sequences for each TaqMan Gene Expression Assay were as follows (SEQ ID. 1-6): Fusobacterium species forward primer, 5′-[…]-3′; Fusobacterium species reverse primer, 5′-[…]-3′; Fusobacterium species FAM probe, 5′-[…]-3′. […]

[8] = system: Fusobacterium-free xenografts derived from HT-29 colon adenocarcinoma cells; assay: In vivo metronidazole trial, Fusobacterium-free HT-29 cell line xenograft; set-up: species or system nude mice (Nu/Nu); conditions: 100 mg/kg/day oral gavage, approximately 3 weeks, vs vehicle; p>0.05 at all timepoints
Procedure: For HT-29 cell line xenograft experiments, approximately 1×10^6 HT29 cells were suspended in PBS, mixed 1:1 with Matrigel (BD Biosciences), and injected subcutaneously into the flanks of nude mice (Nu/Nu; Taconic) in a final volume of 100 μL. Following 10-14 days post implantation, mice were randomized into statistically identical cohorts and treated with 100 mg/kg/day of metronidazole (suspension in 0.5% methylcellulose) or with vehicle alone by oral gavage daily for approximately 3 weeks.
(§2) Nu/nu mice were raised in the specific-pathogen-free (SPF) conditions with autoclaved food and water. For both patient and HT-29 cell derived xenografts, tumor size was measured by caliper every Monday, Wednesday and Friday each week. Tumor volume was calculated using the formula: Volume=0.5×L×W^2 and growth rate was measured by calculating the percentage increase in volume. Tumor measurements were carried out in a blinded approach. Mouse body weight was recorded every 3 to 7 days. Mice were euthanized when the tumor diameter reached 2 cm or following the 3 weeks of drug treatment. Tissues were cryopreserved in Bambanker cell freezing media (Wako Chemicals USA) or snap frozen in liquid nitrogen and stored at −80° C. PDX experiments were performed with 22 (untreated group) and 24 (treated group) mice at timepoint zero, over three independent trials. […]

[9] = system: PDX tumors (COCA36), tumor cell proliferation; assay: In vivo BrdU incorporation assay (IHC) of PDX tumors; set-up: species or system nude mice (Nu/Nu); conditions: n=6 per arm, three weeks treatment vs vehicle, p=0.0015
Procedure: Bromodeoxyuridine (BrdUrd) solution (10 mg/mL, 0.2 mL/mouse) was administered via intraperitoneal injection 16 hours after the last dose of metronidazole or vehicle. After 2 additional hours, mice were sacrificed and tumors were fixed in 10% formalin for immunohistochemistry (IHC) analysis. A total of 6 animals per arm, that were treated with metronidazole or the vehicle for three weeks were randomly selected, over two independent trials, for BrdU incorporation analysis. IHC was performed on 4-μm sections of formalin-fixed paraffin-embedded samples. Tissue sections were deparaffinized and rehydrated, and antigen retrieval was performed in 10 mmol/L citrate buffer (pH 6.0) in a 750 W microwave oven at […] for 30 minutes for BrdU staining, BrdU primary antibody (BD Biosciences, #347580) was added at a dilution of 1:100 and incubated for 1 hour at room temperature. Sections were further processed with horseradish peroxidase-conjugated secondary antibody. The reaction was detected by 3,3-diaminobenzidine and hematoxylin staining. Images were obtained with an Olympus CX41 microscope and QCapture software (QImaging).

[10] = system: Fusobacterium-positive PDX tumors (COCA36); assay: In vivo metronidazole trial, tumor volume of Fusobacterium-positive PDX; set-up: species or system nude mice (Nu/Nu); conditions: 100 mg/kg/day oral gavage, approximately 3 weeks, vs vehicle; p=0.0005
Procedure: Animals bearing tumors (with volumes <250 mm^3) were randomized into statistically identical cohorts and treated with 100 mg/kg/day of metronidazole (Sigma Aldrich, USA), (suspension in 0.5% methylcellulose) or with the vehicle alone (0.5% methylcellulose) by oral gavage, daily, for approximately 3 weeks.
as §2, with “trials. HT-29 derived xenograft experiments were performed with 20 (untreated group) and 19 (treated group) mice at timepoint zero, over two independent trials.” for “trials.”

[11] = system: F. nucleatum strains isolated from COCA36 primary tumor and derived xenografts; assay: Antibiotic sensitivity testing (E-test) of clinical F. nucleatum isolates; type: cell-based, Fusobacterium nucleatum; conditions: for MIC: Fusobacterium nucleatum
Procedure: FIG. 14: Antibiotic sensitivity testing (E-test) of clinical F. nucleatum isolates. E-test on F. nucleatum strains isolated from COCA36 primary tumor and derived xenografts. All E-tests were carried out in triplicate on both FAA agar. The antibiotics tested were metronidazole (MZ), cefoxitin (FX) and imipenem (IP). All F. nucleatum strains tested were sensitive to cefoxitin and metronidazole in vitro: test range was 0.016 to 256 ug/ml. […] The F. nucleatum strains tested were resistant/hetero-resistant to imipenem in vitro.
A 1 McFarland solution, in TSB, was prepared from Fusobacterium strains grown for 24-48 hours on FAA under anaerobic conditions. Using a sterile cotton swab, each Fusobacterium strain were inoculated onto antibiotic free blood agar (FAA) and E-test strip (bioMérieux) for Metronidazole (MZ), Clindamycin (CM), Cefoxitin (FX) and Imipenem (IP) were incubated for up to 72 hours and sensitivity checked after 48 hours. Each sensitivity assay was conducted in triplicate. An FAA blood plate inoculated with each Fusobacterium strain, but without the E-test strip, was used as a growth control.

[12] = system: ETBF induced murine colonic tumors; conditions: DeStefano Shields et al. 2016; cited from earlier work
[13] = E-test on FAA agar, triplicate, test range 0.016 to 256 ug/ml, no bacterial growth at 0.016 ug/ml, read-out: MIC

penicillin
general susceptibility of the species [1]: susceptible

CCCCCCNC(=O)n1cc(F)c(=O)[nH]c1=O [carmofur]
inhibition of Fusobacterium growth, dose response validation [2]: even more potent in killing Fusobacterium than the active drug 5-FU | inhibition of Fusobacterium growth, dose response validation ([2]; listed as Carmofur): potent inhibitor of Fusobacterium growth

CC[C@H]1OC(=O)[C@H](C)[C@@H](O[C@H]2C[C@@](C)(OC)[C@@H](O)[C@H](C)O2)[C@H](C)[C@@H](O[C@@H]2O[C@H](C)C[C@H](N(C)C)[C@H]2O)[C@](C)(O)C[C@@H](C)C(=O)[C@H](C)[C@@H](O)[C@]1(C)O [erythromycin]
general susceptibility of the species [1]: resistant

O=c1[nH]cc(F)c(=O)[nH]1 [5-FU, 5-fluorouracil]
inhibition of Fusobacterium growth, patient CRC isolates [3]: inhibits Fusobacterium growth at levels comparable to achievable doses in plasma of treated patients; also recorded: potent inhibitors of Fusobacterium growth; also recorded: within a range comparable to patient plasma levels when receiving 5-fluorouracil infusion | inhibition of Fusobacterium growth, patient CRC isolates ([3]; listed as 5-Fluorouracil): inhibits Fusobacterium growth at levels comparable to achievable doses in plasma of treated patients | cardiotoxicity [4]: associated with cardiotoxicity | inhibition of F. nucleatum growth in pilot screen [5]: significantly inhibit F. nucleatum growth; also recorded: potent inhibitor of Fusobacterium growth | recurrence/metastasis of Fusobacterium-positive colorectal tumors [6]: less likely to develop recurrence/metastasis

O=C(N[C@H](CO)[C@H](O)c1ccc([N+](=O)[O-])cc1)C(Cl)Cl [chloramphenicol]
general susceptibility of the species [1]: susceptible

Cc1ncc([N+](=O)[O-])n1CCO [metronidazole]
Fusobacterium load in the tumor tissue [7]: significant decrease in Fusobacterium load; also recorded: decreases Fusobacterium load | tumor growth (percentage tumor volume increase), Fusobacterium-free HT-29 xenograft [8]: no significant decrease in tumor growth; also recorded: not statistically significant | tumor cell proliferation (BrdU incorporation) [9]: reduces tumor growth rate and cancer cell proliferation; also recorded: significant reduction in tumor cell proliferation; also recorded: decreased cancer cell proliferation | inhibition of F. nucleatum growth in pilot screen [5]: significantly inhibit F. nucleatum growth | tumor growth (percentage tumor volume increase), Fusobacterium-positive PDX [10]: reduces tumor growth rate; also recorded: statistically significant decrease in tumor growth | in vitro antibiotic sensitivity (sensitive / resistant) ([11]; E-test on FAA agar, triplicate): sensitive | MIC [11, 13]: < 0.016 µg/mL | MIC ([11]; F. nucleatum isolates from the PDX, read-out: minimum inhibitory concentration): < 0.016 µg/mL | reported sensitivity of Fusobacteria ([1]; Lofmark et al. 2010): highly sensitive

CO[C@@]1(NC(=O)Cc2cccs2)C(=O)N2C(C(=O)O)=C(COC(N)=O)CS[C@@H]21 [cefoxitin]
tumorigenesis in ETBF induced murine colonic tumors [12]: reduction in tumorigenesis | in vitro antibiotic sensitivity (sensitive / resistant) ([11]; E-test on FAA agar, triplicate): sensitive | MIC [11, 13]: < 0.016 µg/mL
